Assay results as given in ChEMBL document CHEMBL1201862, “PubChem BioAssay data set” (2004).
Calls of active or inactive are those of the source.

How the values were obtained:
[1] = target: T1, Short transient receptor potential channel 4 (Mus musculus, UniProt Q9QUQ5); assay: block of DAMGO-driven TRPC4 calcium entry – cell-based, HEK293 TRPC4/mu-opioid, Fluo-4 calcium, dose response (AID 434942); assay type: functional;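 note: potency of inhibitors blocking the TRPC4 calcium response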
T1 sequence (Q9QUQ5 whole entry): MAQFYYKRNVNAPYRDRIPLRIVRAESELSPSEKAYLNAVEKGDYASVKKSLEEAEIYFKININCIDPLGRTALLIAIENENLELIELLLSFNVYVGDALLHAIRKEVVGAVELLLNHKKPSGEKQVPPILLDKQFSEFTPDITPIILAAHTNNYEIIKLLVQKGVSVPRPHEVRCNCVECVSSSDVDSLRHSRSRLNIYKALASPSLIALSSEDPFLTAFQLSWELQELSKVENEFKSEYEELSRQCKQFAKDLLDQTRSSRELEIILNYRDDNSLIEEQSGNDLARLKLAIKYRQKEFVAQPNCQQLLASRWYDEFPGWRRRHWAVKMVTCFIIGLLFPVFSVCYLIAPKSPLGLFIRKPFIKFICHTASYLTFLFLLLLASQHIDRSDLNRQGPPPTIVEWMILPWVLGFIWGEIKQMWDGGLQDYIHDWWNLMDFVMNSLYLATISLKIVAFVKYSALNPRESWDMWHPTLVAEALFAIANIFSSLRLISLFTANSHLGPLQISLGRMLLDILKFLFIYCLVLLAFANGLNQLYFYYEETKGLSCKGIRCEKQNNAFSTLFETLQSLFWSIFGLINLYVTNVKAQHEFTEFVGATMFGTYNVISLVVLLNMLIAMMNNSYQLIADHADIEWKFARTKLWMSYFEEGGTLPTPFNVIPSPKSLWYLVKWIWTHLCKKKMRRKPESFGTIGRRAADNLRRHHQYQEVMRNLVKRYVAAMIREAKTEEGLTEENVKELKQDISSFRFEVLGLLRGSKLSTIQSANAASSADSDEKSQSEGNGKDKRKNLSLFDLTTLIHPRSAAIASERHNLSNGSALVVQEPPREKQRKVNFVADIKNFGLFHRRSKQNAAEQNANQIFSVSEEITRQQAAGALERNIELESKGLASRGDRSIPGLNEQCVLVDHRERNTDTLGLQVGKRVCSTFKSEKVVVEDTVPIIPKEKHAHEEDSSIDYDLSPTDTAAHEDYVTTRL

H9c2 = assay: cells; assay type: functional, cell-based; details: Rattus norvegicus, H9c2, Myocardium;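 note: confirmatory concentration-response retest of ultra-high-throughput screening hits for modulation of myocardial damage; cell death induced by hydrogen peroxide oxidative stress; compound pretreatment for 60 min then peroxide exposure for 2 h; potency is for protecting the cells against peroxide damage rather than for killing them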
Melanocortin receptor 4 = Melanocortin receptor 4 (Homo sapiens, UniProt P32245); assay: inhibitors of MC4R cAMP signaling – cell-based, TR-FRET, biased antagonists, dose response (AID 602298); assay type: functional;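 note: antagonist potency against agonist-stimulated cAMP production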
[2] = cAMP pathway inhibition in counterscreen cell line – TR-FRET cAMP detection, counter-screen for MC4R biased antagonist project, dose response (AID 602305); assay type: functional, cell-based;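 note: U2OS cells stimulated with forskolin near its EC80 as the cAMP inducer; potency is for inhibition of forskolin-stimulated cAMP signaling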
Cytochrome P450 2C9 = Cytochrome P450 2C9 (Homo sapiens, UniProt P11712)
[3] = target: T1, Short transient receptor potential channel 4; assay: calcium entry via TRPC4 opening agents – cell-based, HEK293 TRPC4/mu-opioid, Fluo-4 calcium, dose response (AID 434937); assay type: functional
[4] = target: T2, Corticotropin-releasing factor receptor 2/Corticotropin-releasing factor-binding protein (Homo sapiens, UniProt P24387+Q13324); assay: activators of CRF receptor 2 with binding protein – uHTS hits, confirmation (AID 602473); assay type: functional; details: read-out: EC50_Mean
T2 sequence (Q13324 whole entry): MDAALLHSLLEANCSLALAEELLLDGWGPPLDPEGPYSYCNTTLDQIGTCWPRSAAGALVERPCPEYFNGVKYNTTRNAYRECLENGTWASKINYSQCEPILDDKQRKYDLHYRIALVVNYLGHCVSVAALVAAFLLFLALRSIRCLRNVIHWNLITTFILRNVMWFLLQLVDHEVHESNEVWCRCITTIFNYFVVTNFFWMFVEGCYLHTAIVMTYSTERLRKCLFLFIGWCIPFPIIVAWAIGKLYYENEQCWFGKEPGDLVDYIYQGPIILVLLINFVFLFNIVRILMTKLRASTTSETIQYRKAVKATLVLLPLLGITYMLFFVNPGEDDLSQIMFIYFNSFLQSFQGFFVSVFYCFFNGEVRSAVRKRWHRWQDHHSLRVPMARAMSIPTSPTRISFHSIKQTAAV
T2 sequence (P24387 whole entry): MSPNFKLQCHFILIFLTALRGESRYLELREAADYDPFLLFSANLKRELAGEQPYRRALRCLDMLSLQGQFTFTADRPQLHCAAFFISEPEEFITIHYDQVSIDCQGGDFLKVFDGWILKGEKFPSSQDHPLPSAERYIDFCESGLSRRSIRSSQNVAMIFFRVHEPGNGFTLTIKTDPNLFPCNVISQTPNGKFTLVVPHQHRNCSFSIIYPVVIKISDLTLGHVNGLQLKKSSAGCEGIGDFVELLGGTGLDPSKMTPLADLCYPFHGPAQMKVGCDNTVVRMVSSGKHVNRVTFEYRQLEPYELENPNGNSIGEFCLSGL

[5] = target: T2, Corticotropin-releasing factor receptor 2/Corticotropin-releasing factor-binding protein; assay: Dose Response confirmation of uHTS hits for small molecule antagonists of the CRF-binding protein and CRF-R2 receptor complex.; assay type: functional; details: read-out: IC50_Mean
[6] = intracellular Trypanosoma cruzi inhibitors in host cells – cell-based, plate reader, cherry-pick samples, set 3, dose response (AID 651818); assay type: functional;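 note: compounds incubated with infected cells for about four days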
[7] = viability of HCT116 lacking mutant beta-catenin – cell-based, human colon tumor, dose response (AID 1045); assay type: functional;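 note: HCT116 colon tumor cells with beta catenin knocked out; cells exposed to compound for 60 hours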
[8] = viability of PTEN-deleted HCT116 cells – cell-based, HCT116 PTEN knockout, dose response (AID 1047); assay type: functional;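 note: HCT116 colon tumor cells with PTEN knocked out; cells exposed to compound for 60 hours before readout; potency for loss of cell viability measured by luminescence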
Streptococcus = assay: GAS UMAA2166 growth inhibition – luminescence, BacTiterGlo, counter-screen for streptokinase expression inhibitor project, dose response (AID 1915); assay type: functional, organism-based; details: read-out: EC50;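 note: potency for reduction of bacterial viability or growth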
Streptokinase A = target: T3, Streptokinase A (Streptococcus pyogenes serotype M1, UniProt P10520); assay: viability-normalized secreted streptokinase activity reduction – plasminogen activation absorbance, OD405, dose response (AID 1914); assay type: functional, Streptococcus pyogenes M1 GAS;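 note: secreted streptokinase activity via plasminogen activation per viability signal from cell pellet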
T3 sequence (P10520 whole entry): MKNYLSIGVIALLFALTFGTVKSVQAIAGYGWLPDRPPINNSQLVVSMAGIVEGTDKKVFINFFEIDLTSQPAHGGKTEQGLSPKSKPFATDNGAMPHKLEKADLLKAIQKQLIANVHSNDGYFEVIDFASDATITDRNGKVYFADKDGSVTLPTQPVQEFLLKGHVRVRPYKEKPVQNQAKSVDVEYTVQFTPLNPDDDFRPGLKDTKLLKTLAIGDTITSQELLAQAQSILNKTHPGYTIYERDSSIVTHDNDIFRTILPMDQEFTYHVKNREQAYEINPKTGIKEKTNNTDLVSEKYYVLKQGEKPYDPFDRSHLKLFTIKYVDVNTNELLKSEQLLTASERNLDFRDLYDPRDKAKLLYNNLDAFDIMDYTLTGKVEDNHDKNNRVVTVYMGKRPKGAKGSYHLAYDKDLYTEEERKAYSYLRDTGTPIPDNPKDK

Cytochrome P450 2D6 = Cytochrome P450 2D6 (Homo sapiens, UniProt P10635);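 note: CYP2D6 member of a cytochrome P450 panel assay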
[9] = reduction of Shn3 3'UTR-driven luciferase in osteoblasts – cell-based, Clone20 osteoblasts, firefly luciferase, cherry-picked, dose response (AID 624132); assay type: functional;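 note: firefly luciferase luminescence from reporter carrying the Shn3 3'UTR in osteoblasts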
[10] = Luminescence Cell-Based Dose Retest to Confirm Inhibitors of Cancer Stem Cells. [Related pubchem assays (depositor defined):AID2717, AID2721]; assay type: functional; details: Homo sapiens
[11] = NIH3T3 cell viability loss – ATP luminescence, mouse fibroblasts, counter-screen, dose response (AID 2010); assay type: functional, cell-based;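 note: cells exposed to compound for about 90 hours before reading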
Paired box protein Pax-8 = Paired box protein Pax-8 (Homo sapiens, UniProt Q06710); assay: PAX8 transcriptional activity inhibition in RMG-I – RMG-I cells, luciferase, cherry-pick, dose response (AID 687027); assay type: functional, cell-based;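 note: luciferase reporter driven by Pax8 target thyroperoxidase promoter measured by SteadyGlo luminescence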
[12] = tested on: Streptococcus sp. 'group A'; assay: Streptococcus pyogenes SK(-)GAS viability under kanamycin – luminescence, BacTiterGlo, confirmation, counter-screen for streptokinase expression inhibitor project, dose response (AID 1900); assay type: functional, organism-based
[13] = loss of viability in HepG2 cells – cell-based, CellTiter-Glo, cherry-picked, cytotoxicity control for Shn3 inhibitor project, dose response (AID 624134); assay type: functional
[14] = Trypanosoma cruzi growth suppression in host cells – NIH3T3 host cells, beta-gal luminescence, confirmation (AID 2044); assay type: functional, cell-based;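 note: intracellular parasites grown in NIH/3T3 mouse fibroblasts as host cells; luminescent beta-galactosidase reporter signal from transgenic T. cruzi replicating inside host cells; inhibitors lower the luminescence signal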

Melanocortin receptor 4, sequence (P32245 whole entry): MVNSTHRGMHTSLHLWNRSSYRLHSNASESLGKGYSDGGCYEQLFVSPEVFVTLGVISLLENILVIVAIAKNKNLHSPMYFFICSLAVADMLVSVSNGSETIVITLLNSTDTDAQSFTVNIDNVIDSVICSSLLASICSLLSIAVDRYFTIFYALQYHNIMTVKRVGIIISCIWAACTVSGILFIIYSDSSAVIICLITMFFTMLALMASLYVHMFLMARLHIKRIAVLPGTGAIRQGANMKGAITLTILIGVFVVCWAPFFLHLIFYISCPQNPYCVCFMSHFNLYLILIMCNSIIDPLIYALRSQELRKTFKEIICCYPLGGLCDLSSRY
Cytochrome P450 2C9, sequence (P11712 whole entry): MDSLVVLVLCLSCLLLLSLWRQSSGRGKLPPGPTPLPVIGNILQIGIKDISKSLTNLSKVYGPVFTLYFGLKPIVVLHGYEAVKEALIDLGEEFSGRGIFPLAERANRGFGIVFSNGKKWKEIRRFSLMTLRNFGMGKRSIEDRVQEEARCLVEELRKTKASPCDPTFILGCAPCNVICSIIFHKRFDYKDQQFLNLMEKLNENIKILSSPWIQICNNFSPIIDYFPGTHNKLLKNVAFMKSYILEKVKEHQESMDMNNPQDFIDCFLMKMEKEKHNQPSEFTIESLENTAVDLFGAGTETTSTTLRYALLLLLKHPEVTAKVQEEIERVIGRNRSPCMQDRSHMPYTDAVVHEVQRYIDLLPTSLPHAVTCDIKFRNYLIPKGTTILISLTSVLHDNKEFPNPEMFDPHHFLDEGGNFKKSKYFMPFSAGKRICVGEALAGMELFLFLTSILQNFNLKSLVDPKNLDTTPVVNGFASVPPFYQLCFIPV
Cytochrome P450 2D6, sequence (P10635 whole entry): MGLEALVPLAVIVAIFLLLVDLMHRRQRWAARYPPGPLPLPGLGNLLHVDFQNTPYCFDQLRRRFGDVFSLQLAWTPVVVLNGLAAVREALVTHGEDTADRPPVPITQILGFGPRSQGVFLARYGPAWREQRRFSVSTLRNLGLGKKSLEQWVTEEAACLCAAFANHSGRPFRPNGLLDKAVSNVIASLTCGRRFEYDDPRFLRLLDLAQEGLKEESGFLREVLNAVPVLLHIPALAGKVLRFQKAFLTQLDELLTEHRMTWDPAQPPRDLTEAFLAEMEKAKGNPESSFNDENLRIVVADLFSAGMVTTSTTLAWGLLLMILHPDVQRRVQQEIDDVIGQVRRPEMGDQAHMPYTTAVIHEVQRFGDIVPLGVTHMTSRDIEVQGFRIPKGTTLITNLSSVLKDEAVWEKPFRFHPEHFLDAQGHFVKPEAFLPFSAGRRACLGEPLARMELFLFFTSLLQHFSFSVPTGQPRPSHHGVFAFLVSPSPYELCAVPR
Paired box protein Pax-8, sequence (Q06710 whole entry): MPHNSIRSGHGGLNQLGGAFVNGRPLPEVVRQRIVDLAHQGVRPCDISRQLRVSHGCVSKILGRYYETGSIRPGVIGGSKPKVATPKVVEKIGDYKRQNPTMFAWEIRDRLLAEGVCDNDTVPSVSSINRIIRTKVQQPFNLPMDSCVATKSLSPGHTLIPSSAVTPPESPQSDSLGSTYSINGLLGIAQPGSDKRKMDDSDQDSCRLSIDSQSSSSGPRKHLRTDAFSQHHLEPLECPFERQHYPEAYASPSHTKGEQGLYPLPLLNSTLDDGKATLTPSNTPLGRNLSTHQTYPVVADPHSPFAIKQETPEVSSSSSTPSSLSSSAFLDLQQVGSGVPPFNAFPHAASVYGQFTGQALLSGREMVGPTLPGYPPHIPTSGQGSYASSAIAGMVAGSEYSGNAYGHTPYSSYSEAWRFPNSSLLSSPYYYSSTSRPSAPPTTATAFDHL

CC(=O)C1=C(O)C(=O)N(Cc2ccccc2)C1c1ccc([N+](=O)[O-])cc1 (stereo unspecified)
EC50 [1]: 1.19 µM (active)

CC(=O)Nc1ccc(S(=O)(=O)Nc2nc3ccc(C)cc3s2)cc1
EC50 [1]: 3.76 µM (active)

O=C(NCC(=O)N(Cc1ccccc1)C(C(=O)NC1CCCCC1)c1ccco1)c1ccco1 (stereo unspecified)
IC50 (H9c2): 42.2 µM (inactive)

COC(=O)c1c(NC(=O)COC(=O)c2ccc(Cl)cc2[N+](=O)[O-])sc2c1CCCCC2
IC50 (Melanocortin receptor 4): > 64.6 µM (inactive)
IC50 [2]: > 64.6 µM (inactive)

CCn1c(-c2ccccc2Cl)nn(CC(=O)Nc2ccccc2OC)c1=S
AC50 (Cytochrome P450 2C9): inconclusive

O=C(NCc1ccccc1)C1=C[C@H](c2ccccc2)C[C@H](OCc2ccc(CO)cc2)O1
EC50 [3]: 1.06 µM (active)
EC50 [4]: > 53 µM (inactive)
IC50 [5]: > 47.1 µM (inactive)

COc1ccc2sc(-c3ccc(S(C)(=O)=O)cc3)c(-c3ccc(C(N)=O)cc3)c2c1
IC50 (Melanocortin receptor 4): 11.5 µM (inactive)
IC50 [2]: 25.1 µM (inactive)

Cc1nnsc1SCC(=O)O
AC50 (Cytochrome P450 2C9): inconclusive

NC(=O)c1cccc(Nc2nc(C(N)CCc3ccccc3)cs2)n1 (stereo unspecified)
IC50 (H9c2): 18.3 µM (active)

C[C@@H]1CN([C@@H](C)CO)C(=O)c2cccc(NC(=O)Nc3ccc(C(F)(F)F)cc3)c2O[C@@H]1CN(C)Cc1ccc(C(F)(F)F)cc1
AC50 [6]: 3.89 µM (active)

Cc1noc(C)c1S(=O)(=O)Nc1ccc2c(c1)CC(=O)N([C@@H](C)CO)C[C@H](C)[C@@H](CN(C)Cc1ccc(-c3ccccc3)cc1)O2
AC50 [6]: 4.33 µM (active)

COc1ccc(S(=O)(=O)Nc2ccc3c(c2)CC(=O)N([C@@H](C)CO)C[C@@H](C)[C@@H](CN(C)Cc2ccc(C(=O)Nc4ccccc4N)cc2)O3)cc1
AC50 [6]: 1.62 µM (active)

Cc1ccc(S(=O)(=O)Nc2cccc3c2O[C@@H](CN(C)Cc2ccc(-c4ccccc4)cc2)[C@@H](C)CN([C@@H](C)CO)C3=O)cc1
AC50 [6]: 3.36 µM (active)

Oc1ccc(/N=C/C=C/c2ccc(Br)cc2)cc1-c1nc2ccccc2s1
EC50 [7]: 22.4 µM (active)
EC50 [8]: 28.8 µM (active)

Cc1cc(O)c(C(C)C)cc1C1(c2cc(C(C)C)c(O)cc2C)OC(=O)c2ccccc21
EC50 (Streptococcus): 3.87 µM (active)
EC50 (Streptokinase A): > 150 µM (not active)
AC50 (Cytochrome P450 2D6): 3.98 µM (inconclusive)
IC50 (Melanocortin receptor 4): > 64.6 µM (inactive)
IC50 [2]: > 64.6 µM (inactive)
AC50 [9]: 9.45 µM (active)
AC50 [10]: 1.71 µM (active)
EC50 [11]: > 60 µM (not active)
AC50 (Paired box protein Pax-8): 8.19 µM (active)
EC50 [12]: 1.24 µM (active)
AC50 [13]: 18.8 µM (active)
EC50 [14]: 2.11 µM (active)
